Measurements taken from ChEMBL document CHEMBL3217551, “A concise synthesis of the potent inflammatory mediator 5-oxo-ETE” (Medchemcomm, 2012).

Legend:
[1] = biological target: Oxoeicosanoid receptor 1 (Homo sapiens, UniProt Q8TDS5); assay: Agonist activity at OXE receptor (unknown origin) expressed in HEK293 cells co-expressing Galpha subunit G16 assessed as calcium mobilization using Oregon Green 488 BAPTA-1/AM by fluorescence assay; type: functional, cell-based
[2] = Stability of the compound after 36 hrs by NMR spectroscopy; type: physicochemical
[3] = Stability of the compound in DMSO-d6 at room temperature after 4 to 21 days by NMR spectroscopy in presence of CDCl3; type: ADME
[4] = Stability of the compound at room temperature after 19 days by NMR spectroscopy in presence of CDCl3; type: ADME; conditions: 456 h
[5] = Stability of the compound after 48 hrs by NMR spectroscopy; type: physicochemical

Oxoeicosanoid receptor 1, sequence (Q8TDS5 whole entry): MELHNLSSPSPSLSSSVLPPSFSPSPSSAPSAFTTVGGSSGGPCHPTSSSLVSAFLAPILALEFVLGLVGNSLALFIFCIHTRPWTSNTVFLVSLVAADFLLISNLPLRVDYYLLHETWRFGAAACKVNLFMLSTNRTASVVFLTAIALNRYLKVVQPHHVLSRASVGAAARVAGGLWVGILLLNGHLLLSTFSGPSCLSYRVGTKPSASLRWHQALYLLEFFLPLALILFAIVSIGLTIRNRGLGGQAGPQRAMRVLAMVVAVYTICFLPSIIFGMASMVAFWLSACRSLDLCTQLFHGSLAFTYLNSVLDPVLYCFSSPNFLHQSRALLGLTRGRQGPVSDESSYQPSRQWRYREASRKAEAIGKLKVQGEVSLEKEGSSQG

EC50 [1]: 67 nM
Stability [2]: Stable
Stability [3]: Stable
Stability [4]: Stable
Stability [5]: Unstable
SMILES: CCCCC/C=C\C/C=C\C/C=C\C=C\C(=O)CCCC(=O)O [5-OXO-ETE]
